{"source": "patent US11020394B2", "about": "“Compositions and methods for treating inflammatory bowel disease using a combination therapy of small molecule inhibitors of C—C chemokine receptor type 9 (CCR9) and anti-α4β7 integrin blocking antibodies” (ChemoCentryx, Inc., priority 2014, dated 2021)", "test_system": "in vitro differentiated human CCR9+α4β7+ T cells", "test": "Static binding (adhesion) assay of in vitro differentiated T cells on MAdCAM-1-Fc coated plates", "assay_type": "cell-based", "details": "1 μM CCX507, with hCCL25, MAdCAM-1-Fc coated plates, FIG. 1B", "procedure": "Adhesion assays were performed as follows. Human lymphocytes were isolated from total PBMCs and activated with α-CD3ε/α-CD28 (1 μg/mL; R&D Systems) in the presence of 1 μM retinoic acid (Sigma) and 1 ng/mL human IL12 (R&D Systems). In vitro activated T cells were further expanded for 5 days in the presence of 1 μM retinoic acid (RA) and 1 ng/mL human IL12. The expanded cells were stained with an anti CCR9 APC conjugated antibody (Cat. No. 248621; R&D Systems) and a conjugated anti-α4β7 integrin antibody (Act-1). The stained cells were analyzed by flow cytometry. Expression of CCR9 and α4β7 integrin in the expanded T cells was depicted as a 2-parameter scatterplot in FIG. 1A.\nIn vitro activated T cells were added to 96-well plate coated overnight with 0.3 μg/mL MAdCAM-1-Fc fusion protein (R&D Systems) in the presence of the following conditions: DMSO only, 500 ng human CCL25 (hCCL25; a CCR9 ligand) only, 1 μM CCX507 (a CCR9 small molecule inhibitor) only, or 500 ng hCCL25 and 1 μM CCX507. Adherent cells were quantified using CyQUANT® Cell Proliferation Assays (Thermo Fisher)."}
{"smiles": "Cc1cc(NS(=O)(=O)c2ccc(C(C)(C)C)c(F)c2)n(-c2ccc(N)c3ncccc23)n1", "note": "[CCX507]", "values": [{"measurement": "binding of RA-differentiated human T cells to MAdCAM-1 (adherent cells quantified using CyQUANT, RFU)", "result": "limits the binding of RA-differentiated human T cells to MAdCAM-1"}]}
